Experiments:
Assay type in all cases: in vivo
[1] = test system: Stellaria media (L.) Vill.; experiment: greenhouse trial, foliar applied compositions, STEME (common chickweed)
Text: (§1) More specifically, the following equation is used to calculate the expected activity of mixtures containing two herbicidal active ingredients: Expected=A+B−(A×B/100) A=observed efficacy of a first active ingredient at the same concentration as used in the mixture; B=observed efficacy of the second active ingredient (or product, which may contain a combination of active ingredients) at the same concentration as used in the mixture. For mixtures containing three herbicidal active ingredients, the following equation can be used to calculate the expected activity: Expected=100−[(100−A)(100−B)(100−C)/10,000] A=observed efficacy of a first active ingredient at the same concentration as used in the mixture; B=observed efficacy of a second active ingredient B at the same concentration as used in the mixture; C=observed efficacy of a third active ingredient C at the same concentration as used in the mixture.
(§2) Results in Tables 1-12 are greenhouse trial results for foliar applied compositions.
(§3) g/ha=grams acid equivalent per hectare for Cmpd 1 and grams active ingredient per hectare for flurtamone, flufenacet, and diflufenican Obs=observed value Exp=expected value as calculated by the equations set forth above. Cmpd 1=methyl 4-amino-3-chloro-6-(4-chloro-2-fluoro-3-methoxyphenyl)-pyridine-2-carboxylate

[2] = test system: Chenpodium album L.; experiment: greenhouse trial, foliar applied compositions, CHEAL (common lambsquarters)
Text: as §1, §2, §3

[3] = test system: Amaranthus retroflexus L.; experiment: greenhouse trial, foliar applied compositions, AMARE (redroot pigweed)
Text: as §1, §2, §3

[4] = test system: Viola tricolor L.; experiment: greenhouse trial, foliar applied compositions, VIOTR (wild violet)
Text: as §1, §2, §3

[5] = test system: Abutilon theophrasti Medik.; experiment: greenhouse trial, foliar applied compositions, ABUTH (velvetleaf)
Text: as §1, §2, §3

[6] = test system: Ipomoea hederacea; experiment: greenhouse trial, foliar applied compositions, IPOHE (ivyleaf morningglory)
Text: as §1, §2, §3

[7] = test system: Cyperus esculentus L.; experiment: greenhouse trial, foliar applied compositions, CYPES (yellow nutsedge)
Text: as §1, §2, §3

[8] = test system: Setaria faberi Herrm.; experiment: greenhouse trial, foliar applied compositions, SETFA (giant foxtail)
Text: as §1, §2, §3

[9] = test system: Euphorbia heterohylla L.; experiment: greenhouse trial, foliar applied compositions, EPHHL (wild poinsettia)
Text: as §1, §2, §3

[10] = test system: Triticum aestivum (spring); experiment: greenhouse trial, foliar applied compositions, TRZAS (spring wheat)
Text: as §1, §2, §3

[11] = test system: Cirsium arvense (L.) Scop.; experiment: greenhouse trial, foliar applied compositions, CIRAR (Canada thistle)
Text: as §1, §2, §3

[12] = foliar applied, Cmpd 1 5.00 g/ha

CNC1=C(c2cccc(C(F)(F)F)c2)C(=O)C(c2ccccc2)O1 (racemic) [Flurtamone, (±)-5-(methylamino)-2-phenyl-4-[3-(trifluoromethyl)phenyl]-3(2H)-furanone]
STEME Obs ([1]; Flurtamone 62.5 g/ha): 20 | STEME Obs ([1]; Flurtamone 125 g/ha): 30 | CHEAL Obs ([2]; Flurtamone 62.5 g/ha): 25 | CHEAL Obs ([2]; Flurtamone 125 g/ha): 40 | AMARE Obs ([3]; Flurtamone 62.5 g/ha): 40 | AMARE Obs ([3]; Flurtamone 125 g/ha): 65 | VIOTR Obs ([4]; Flurtamone 62.5 g/ha): 25 | VIOTR Obs ([4]; Flurtamone 125 g/ha): 30 | ABUTH Obs ([5]; Flurtamone 62.5 g/ha): 40 | ABUTH Obs ([5]; Flurtamone 125 g/ha): 63 | IPOHE Obs ([6]; Flurtamone 62.5 g/ha): 25 | IPOHE Obs ([6]; Flurtamone 125 g/ha): 33 | CYPES Obs ([7]; Flurtamone 62.5 g/ha): 5 | CYPES Obs ([7]; Flurtamone 125 g/ha): 8 | SETFA Obs ([8]; Flurtamone 62.5 g/ha): 0 | SETFA Obs ([8]; Flurtamone 125 g/ha): 10 | EPHHL Obs ([9]; Flurtamone 62.5 g/ha): 25 | EPHHL Obs ([9]; Flurtamone 125 g/ha): 40 | TRZAS Obs ([10]; Flurtamone 62.5 g/ha): 0 | TRZAS Obs ([10]; Flurtamone 125 g/ha): 0 | CIRAR Obs ([11]; Flurtamone 62.5 g/ha): 88 | CIRAR Obs ([11]; Flurtamone 125 g/ha): 95

COC(=O)c1nc(-c2ccc(Cl)c(OC)c2F)cc(N)c1Cl [Cmpd 1, methyl 4-amino-3-chloro-6-(4-chloro-2-fluoro-3-methoxyphenyl)-pyridine-2-carboxylate]
STEME Obs ([1]; Cmpd 1 1.25 g/ha): 20 | STEME Obs ([1]; Cmpd 1 2.50 g/ha): 58 | STEME Obs ([1]; Cmpd 1 5.00 g/ha): 65 | STEME Obs [1, 12]: 65 | CHEAL Obs ([2]; Cmpd 1 1.25 g/ha): 60 | CHEAL Obs ([2]; Cmpd 1 2.50 g/ha): 83 | CHEAL Obs ([2]; Cmpd 1 5.00 g/ha): 85 | CHEAL Obs [2, 12]: 85 | AMARE Obs ([3]; Cmpd 1 1.25 g/ha): 30 | AMARE Obs ([3]; Cmpd 1 2.50 g/ha): 93 | AMARE Obs ([3]; Cmpd 1 5.00 g/ha): 78 | AMARE Obs [3, 12]: 78 | VIOTR Obs ([4]; Cmpd 1 1.25 g/ha): 5 | VIOTR Obs ([4]; Cmpd 1 2.50 g/ha): 15 | VIOTR Obs ([4]; Cmpd 1 5.00 g/ha): 23 | VIOTR Obs [4, 12]: 23 | ABUTH Obs ([5]; Cmpd 1 1.25 g/ha): 78 | ABUTH Obs ([5]; Cmpd 1 2.50 g/ha): 91 | ABUTH Obs ([5]; Cmpd 1 5.00 g/ha): 98 | IPOHE Obs ([6]; Cmpd 1 1.25 g/ha): 15 | IPOHE Obs ([6]; Cmpd 1 2.50 g/ha): 15 | IPOHE Obs ([6]; Cmpd 1 5.00 g/ha): 35 | CYPES Obs ([7]; Cmpd 1 1.25 g/ha): 58 | CYPES Obs ([7]; Cmpd 1 2.50 g/ha): 85 | CYPES Obs ([7]; Cmpd 1 5.00 g/ha): 81 | CYPES Obs [7, 12]: 81 | SETFA Obs ([8]; Cmpd 1 1.25 g/ha): 0 | SETFA Obs ([8]; Cmpd 1 2.50 g/ha): 5 | SETFA Obs ([8]; Cmpd 1 5.00 g/ha): 0 | EPHHL Obs ([9]; Cmpd 1 1.25 g/ha): 60 | EPHHL Obs ([9]; Cmpd 1 2.50 g/ha): 89 | EPHHL Obs ([9]; Cmpd 1 5.00 g/ha): 92 | EPHHL Obs [9, 12]: 92 | TRZAS Obs ([10]; Cmpd 1 1.25 g/ha): 0 | TRZAS Obs ([10]; Cmpd 1 2.50 g/ha): 0 | TRZAS Obs ([10]; Cmpd 1 5.00 g/ha): 0 | CIRAR Obs ([11]; Cmpd 1 1.25 g/ha): 20 | CIRAR Obs ([11]; Cmpd 1 2.50 g/ha): 55 | CIRAR Obs ([11]; Cmpd 1 5.00 g/ha): 75 | CIRAR Obs [11, 12]: 75

O=C(Nc1ccc(F)cc1F)c1cccnc1Oc1cccc(C(F)(F)F)c1 [Diflufenican, N-(2,4-difluorophenyl)-2-[3-(trifluromethyl)phenoxy]-3-pyridinecarboxamide]
STEME Obs ([1]; Diflufenican 25 g/ha): 10 | STEME Obs ([1]; Diflufenican 50 g/ha): 15 | CHEAL Obs ([2]; Diflufenican 25 g/ha): 25 | CHEAL Obs ([2]; Diflufenican 50 g/ha): 25 | AMARE Obs ([3]; Diflufenican 25 g/ha): 25 | AMARE Obs ([3]; Diflufenican 50 g/ha): 50 | VIOTR Obs ([4]; Diflufenican 25 g/ha): 10 | VIOTR Obs ([4]; Diflufenican 50 g/ha): 15 | ABUTH Obs ([5]; Diflufenican 25 g/ha): 15 | ABUTH Obs ([5]; Diflufenican 50 g/ha): 15 | IPOHE Obs ([6]; Diflufenican 25 g/ha): 10 | IPOHE Obs ([6]; Diflufenican 50 g/ha): 13 | CYPES Obs ([7]; Diflufenican 25 g/ha): 0 | CYPES Obs ([7]; Diflufenican 50 g/ha): 0 | SETFA Obs ([8]; Diflufenican 25 g/ha): 8 | SETFA Obs ([8]; Diflufenican 50 g/ha): 5 | EPHHL Obs ([9]; Diflufenican 25 g/ha): 43 | EPHHL Obs ([9]; Diflufenican 50 g/ha): 50 | TRZAS Obs ([10]; Diflufenican 25 g/ha): 0 | TRZAS Obs ([10]; Diflufenican 50 g/ha): 0 | CIRAR Obs ([11]; Diflufenican 25 g/ha): 28 | CIRAR Obs ([11]; Diflufenican 50 g/ha): 25

CC(C)N(C(=O)COc1nnc(C(F)(F)F)s1)c1ccc(F)cc1 [Flufenacet, N-(4-fluorophenyl)-N-(1-methylethyl)-2-[[5-(trifluoromethyl)-1,3,4-thiadiazol-2-yl]oxy]acetamide]
STEME Obs ([1]; Flufenacet 30 g/ha): 0 | STEME Obs ([1]; Flufenacet 60 g/ha): 0 | CHEAL Obs ([2]; Flufenacet 30 g/ha): 0 | CHEAL Obs ([2]; Flufenacet 60 g/ha): 0 | AMARE Obs ([3]; Flufenacet 30 g/ha): 0 | AMARE Obs ([3]; Flufenacet 60 g/ha): 0 | VIOTR Obs ([4]; Flufenacet 30 g/ha): 0 | VIOTR Obs ([4]; Flufenacet 60 g/ha): 0 | ABUTH Obs ([5]; Flufenacet 30 g/ha): 0 | ABUTH Obs ([5]; Flufenacet 60 g/ha): 0 | IPOHE Obs ([6]; Flufenacet 30 g/ha): 0 | IPOHE Obs ([6]; Flufenacet 60 g/ha): 0 | CYPES Obs ([7]; Flufenacet 30 g/ha): 0 | CYPES Obs ([7]; Flufenacet 60 g/ha): 0 | SETFA Obs ([8]; Flufenacet 30 g/ha): 0 | SETFA Obs ([8]; Flufenacet 60 g/ha): 0 | EPHHL Obs ([9]; Flufenacet 30 g/ha): 0 | EPHHL Obs ([9]; Flufenacet 60 g/ha): 0 | TRZAS Obs ([10]; Flufenacet 30 g/ha): 0 | TRZAS Obs ([10]; Flufenacet 60 g/ha): 0 | CIRAR Obs ([11]; Flufenacet 30 g/ha): 0 | CIRAR Obs ([11]; Flufenacet 60 g/ha): 0
